Measurements taken from the NIST ThermoML archive (doi:10.1021/acs.jced.7b00035).
“And” between values parts separate entries of the source, which are not always exact repeats. Equal values may be shown once.

Key:
[1] = xn = mol fraction of the nth substance listed; settings: 100 kPa, Liquid, Vibrating tube method
[2] = excess molar enthalpy (molar enthalpy of mixing); xn = mol fraction of the nth substance listed; settings: 100 kPa, Liquid, Flow calorimetry

CCCC(C)=O [pentan-2-one] + O
Settings	excess molar enthalpy, [2]	mass density, [1]
288.15 K, x1 = 0.000842	-0.00254 kcal/mol and -0.00255 kcal/mol	998.562 kg/m3 and 998.56 kg/m3
288.15 K, x1 = 0.001683	-0.00506 kcal/mol	998.027 kg/m3 and 998.026 kg/m3
288.15 K, x1 = 0.002522	-0.00753 kcal/mol and -0.00751 kcal/mol	997.512 kg/m3 and 997.513 kg/m3
288.15 K, x1 = 0.00336	-0.00987 kcal/mol	997.021 kg/m3
288.15 K, x1 = 0.003361	-0.00991 kcal/mol	997.002 kg/m3
288.15 K, x1 = 0.004197	-0.0122 kcal/mol	996.522 kg/m3
288.15 K, x1 = 0.004198	-0.0123 kcal/mol	996.499 kg/m3
288.15 K, x1 = 0.005032	-0.0146 kcal/mol	996.016 kg/m3
288.15 K, x1 = 0.005035	-0.0146 kcal/mol	996.015 kg/m3
298.15 K, x1 = 0.000841	-0.00207 kcal/mol	996.472 kg/m3
298.15 K, x1 = 0.000842	-0.00207 kcal/mol	996.472 kg/m3
298.15 K, x1 = 0.001681	-0.00411 kcal/mol	995.903 kg/m3
298.15 K, x1 = 0.001682	-0.00412 kcal/mol	995.902 kg/m3
298.15 K, x1 = 0.00252	-0.00613 kcal/mol	995.346 kg/m3
298.15 K, x1 = 0.002521	-0.00617 kcal/mol	995.334 kg/m3
298.15 K, x1 = 0.003357	-0.00809 kcal/mol	994.797 kg/m3
298.15 K, x1 = 0.003358	-0.008 kcal/mol	994.811 kg/m3
298.15 K, x1 = 0.004193	-0.00999 kcal/mol and -0.00995 kcal/mol	994.25 kg/m3 and 994.26 kg/m3
298.15 K, x1 = 0.005028	-0.0119 kcal/mol	993.716 kg/m3
298.15 K, x1 = 0.005029	-0.0119 kcal/mol	993.707 kg/m3
308.15 K, x1 = 0.000841	-0.00163 kcal/mol	–
308.15 K, x1 = 0.000842	-0.00164 kcal/mol	993.42 kg/m3
308.15 K, x1 = 0.001681	-0.00322 kcal/mol	992.814 kg/m3
308.15 K, x1 = 0.001683	-0.00322 kcal/mol	992.818 kg/m3
308.15 K, x1 = 0.00252	-0.00476 kcal/mol	992.226 kg/m3
308.15 K, x1 = 0.002522	-0.00473 kcal/mol	992.228 kg/m3
308.15 K, x1 = 0.003358	-0.00626 kcal/mol	991.617 kg/m3
308.15 K, x1 = 0.00336	-0.00623 kcal/mol	991.643 kg/m3
308.15 K, x1 = 0.004194	-0.00773 kcal/mol	991.052 kg/m3
308.15 K, x1 = 0.004197	-0.00775 kcal/mol	991.045 kg/m3
308.15 K, x1 = 0.005031	-0.00918 kcal/mol	990.475 kg/m3
308.15 K, x1 = 0.005034	-0.00916 kcal/mol	990.474 kg/m3
318.15 K, x1 = 0.00084	-0.00118 kcal/mol	989.57 kg/m3
318.15 K, x1 = 0.001679	-0.00232 kcal/mol	988.929 kg/m3
318.15 K, x1 = 0.002517	-0.00341 kcal/mol	988.307 kg/m3
318.15 K, x1 = 0.003354	-0.0045 kcal/mol	987.666 kg/m3
318.15 K, x1 = 0.004189	-0.00553 kcal/mol	987.058 kg/m3
318.15 K, x1 = 0.005024	-0.0065 kcal/mol	986.447 kg/m3

CCC(=O)CC [pentan-3-one] + O
Settings	excess molar enthalpy, [2] [kcal/mol]	mass density, [1] [kg/m3]
288.15 K, x1 = 0.000848	-0.00261	998.595
288.15 K, x1 = 0.000849	-0.00264	998.589
288.15 K, x1 = 0.001695	-0.00514	998.107
288.15 K, x1 = 0.001696	-0.0052	998.104
288.15 K, x1 = 0.00254	-0.00771	997.609
288.15 K, x1 = 0.002542	-0.00769	997.616
288.15 K, x1 = 0.003385	-0.0102	997.144
288.15 K, x1 = 0.003386	-0.0102	997.139
288.15 K, x1 = 0.004227	-0.0127	996.667
288.15 K, x1 = 0.004229	-0.0126	996.682
288.15 K, x1 = 0.005069	-0.015	996.228
288.15 K, x1 = 0.005071	-0.015	996.221
298.15 K, x1 = 0.000847	-0.00214	996.504
298.15 K, x1 = 0.001693	-0.00429	995.96
298.15 K, x1 = 0.001694	-0.00426	995.958
298.15 K, x1 = 0.002537	-0.00626	995.458
298.15 K, x1 = 0.002539	-0.0063	995.442
298.15 K, x1 = 0.00338	-0.00823	994.944
298.15 K, x1 = 0.003383	-0.0083	994.931
298.15 K, x1 = 0.004222	-0.0103	994.42
298.15 K, x1 = 0.004225	-0.0103	994.423
298.15 K, x1 = 0.005064	-0.0123	993.924
298.15 K, x1 = 0.005066	-0.0123	993.902
308.15 K, x1 = 0.000848	-0.00167	993.46
308.15 K, x1 = 0.000849	-0.00169	993.449
308.15 K, x1 = 0.001695	-0.00332	992.887
308.15 K, x1 = 0.001696	-0.00332	992.873
308.15 K, x1 = 0.00254	-0.00493	992.322
308.15 K, x1 = 0.002543	-0.00497	992.311
308.15 K, x1 = 0.003384	-0.00646	991.77
308.15 K, x1 = 0.003387	-0.00641	991.774
308.15 K, x1 = 0.004226	-0.00797	991.241
308.15 K, x1 = 0.004231	-0.00798	991.216
308.15 K, x1 = 0.005069	-0.00955	990.666
308.15 K, x1 = 0.005074	-0.00957	990.66
318.15 K, x1 = 0.000849	-0.00121	989.61
318.15 K, x1 = 0.00085	-0.00122	989.603
318.15 K, x1 = 0.001697	-0.00241	989.005
318.15 K, x1 = 0.001698	-0.00241	988.992
318.15 K, x1 = 0.002543	-0.00355	988.399
318.15 K, x1 = 0.002544	-0.00357	988.396
318.15 K, x1 = 0.003388	-0.00462	987.821
318.15 K, x1 = 0.00339	-0.00467	987.82
318.15 K, x1 = 0.004231	-0.00576	987.229
318.15 K, x1 = 0.004233	-0.00573	987.234
318.15 K, x1 = 0.005073	-0.00678	986.636
318.15 K, x1 = 0.005076	-0.00682	986.636
